Test results: patent US20250387481A1, “PRE-TREATED T CELLS FOR USE AS A MEDICAMENT” (STICHTING HET NEDERLANDS KANKER INSTITUUT-ANTONI VAN …, priority 2022, published 2025)

Columns and labels:
Assay type in all cases: cell-based
[1] = test system: mouse splenic T cells; experiment: MTT assessment of mouse splenic T cell survival following chemotherapy treatment in vitro; conditions: 10 nmol/L, 72 h
Protocol: About 100,000 T cells were seeded per well in a 96-well plate and treated with
increasing doses of docetaxel, paclitaxel, or carboplatin for 72 h. Next, T cells were incubated with Thiazolyl Blue Tetrazolium Bromide (0.5 mg/ml, Sigma Aldrich, Cat. No. 298-93-1) for 3 hr in the dark at 37 degrees Celsius. Subsequently, T cells were incubated for 16 h in the dark in a lysis buffer (40% dimerhylofrmamide, 0.55 mol/L sodium dodecyl sulfate, 2% acetic acid, 8.4 mmol/L HCl in MilliQ water). Plates were read with a 565 nm wavelength.

[2] = test system: mouse T cells isolated from the spleen; experiment: T cell immunofluorescence staining of tubulin and F-actin; conditions: 10 nmol/L, 72 h
Protocol: Mouse T cells isolated from the spleen and treated with a vehicle control or with docetaxel (10 nmol/L for 72 h) were seeded on glass coverslips pre-coated with poly-D-lysine (Thermo Fisher Cat. No. A3890401) and with αCD3 (eBioscience, Cat. No. 56-0033-80) for 15 min. Next, for immunofluorescence staining of tubulin, cells were extracted for 1 min with pre-warmed (37° C.) extraction buffer composed of MRB80 (80 mmol/L K-PIPES pH 6.8, 4 mmol/L MgCl2, 1 mmol/L EGTA) supplemented with 0.35% Triton X-100 and 0.2% glutaraldehyde, followed by fixation using pre-warmed (37° C.) 4% paraformaldehyde (PFA) in PBS for 10 min. Cells were washed with PBS and permeabilized with 0.2% Triton X-100 in PBS for 5 min. […]
For fluorescence intensity quantifications, samples were imaged on a spinning disk confocal setup consisting of an inverted research microscope Nikon Eclipse Ti-E (Nikon) equipped with the perfect focus system (Nikon), Plan Apo VC 100×N.A. 1.40 oil objective (Nikon), spinning disk Yokogawa CSU-X1-A1 with 405-491-561-642 quad-band mirror (Yokogawa). […]
All images were processed using ImageJ. For quantification of fluorescence intensity, sum projections were made for each z-stack using ImageJ. Next, the raw integrated density of a square box around individual cells of interest per image, as well as an empty region in the field of view, were calculated using ImageJ. […]

[3] = test system: human healthy lung organoids; experiment: Healthy organoids killing assay with tumor-reactive T cells; conditions: tumor-reactive T cells pre-treated with docetaxel
Protocol: To express luciferase in the tumor organoids, we used pLenti CMV Puro LUC (w168-1; Plasmid #17477; Addgene). Tumor-reactive PBMC were thawed in pre-warmed T cell medium and incubated for 15 minutes with 25 U/ml Benzonase. After washing, cells were re-suspended at 2−3×10^6 cells/ml in T cell medium and cultured overnight at 37° C. The day after, PBMC were incubated with (or without) 10 nmol/L docetaxel for 48 hr. To determine the sensitivity of tumor and healthy organoids to T cell-mediated killing, flatbottom non-tissue culture treated plates were coated with 5 μg/ml αCD28 and kept at 4° C. overnight prior to co-culture. Tumor organoids were previously transduced with luciferase reporter gene. Organoids were isolated from Geltrex 48 hours prior to co-culture and stimulated with 200 ng/ml IFNγ for 24 hr prior to co-culture. The next day, part of the organoids was dissociated to single cells and counted using a hemocytometer. […] At the end of the 72 hours, tumor and healthy organoids viability in the different conditions was evaluated by microscopy, taking bright-field pictures at 5 and 10× magnification. Tumor cell viability in the different conditions was also measured by luciferase reporter assay using 3 μg/mL luciferin. Luminescence was measured with a Tecan reader (1,000 ms exposure).

CC(=O)O[C@@]12CO[C@@H]1C[C@H](O)[C@@]1(C)C(=O)[C@H](O)C3=C(C)[C@@H](OC(=O)[C@H](O)[C@@H](NC(=O)OC(C)(C)C)c4ccccc4)C[C@@](O)([C@@H](OC(=O)c4ccccc4)[C@H]21)C3(C)C [docetaxel]
killing of T cells (MTT) [1]: did not induce significant killing of T cells
microtubule density [2]: increased microtubule density
killing of healthy organoids [3]: not against healthy organoids
